Counter-ions that a name gives are not always drawn. Like-named read-outs stand apart in the source and are kept apart here.
Columns and labels:
[1] = target: Pim-1 (Homo sapiens (Human), UniProt P11309); assay: ADP-Glo Kinase Assay, Pim-1; assay type: biochemical; details: 1 μM compound; for inhibition at 1 µM: read-out: Pim-1 % INH (1 μM)
Method in brief: (§1)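 Compounds were diluted in assay buffer to 1000 nM and incubated with kinase, substrate and ATP at apparent Km. Remaining ATP was depleted, ADP converted to ATP and detected by luciferase; percent inhibition came from normalized luminescence.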

[2] = target: Pim-2 (Homo sapiens (Human), UniProt Q9P1W9); assay: ADP-Glo Kinase Assay, Pim-2; assay type: biochemical; details: 1 μM compound; for inhibition at 1 µM: read-out: Pim-2 % INH (1 μM)
Chain of Pim-2 (Q9P1W9 whole entry): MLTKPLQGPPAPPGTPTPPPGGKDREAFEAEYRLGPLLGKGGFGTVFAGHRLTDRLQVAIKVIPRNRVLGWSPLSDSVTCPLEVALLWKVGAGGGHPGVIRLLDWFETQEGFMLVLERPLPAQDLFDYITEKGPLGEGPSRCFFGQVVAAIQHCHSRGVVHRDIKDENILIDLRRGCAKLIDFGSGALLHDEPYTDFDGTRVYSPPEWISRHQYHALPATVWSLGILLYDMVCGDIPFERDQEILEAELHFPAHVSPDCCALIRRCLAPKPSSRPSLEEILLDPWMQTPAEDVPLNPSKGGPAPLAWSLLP
Method in brief: as §1

[3] = target: FLT3wt (Homo sapiens (Human), UniProt P36888); assay: ADP-Glo Kinase Assay, Flt3 wt; assay type: biochemical; details: 1 μM compound; for inhibition at 1 µM: read-out: Flt3wt % INH (1 μM)
Chain of FLT3wt (P36888 27-993): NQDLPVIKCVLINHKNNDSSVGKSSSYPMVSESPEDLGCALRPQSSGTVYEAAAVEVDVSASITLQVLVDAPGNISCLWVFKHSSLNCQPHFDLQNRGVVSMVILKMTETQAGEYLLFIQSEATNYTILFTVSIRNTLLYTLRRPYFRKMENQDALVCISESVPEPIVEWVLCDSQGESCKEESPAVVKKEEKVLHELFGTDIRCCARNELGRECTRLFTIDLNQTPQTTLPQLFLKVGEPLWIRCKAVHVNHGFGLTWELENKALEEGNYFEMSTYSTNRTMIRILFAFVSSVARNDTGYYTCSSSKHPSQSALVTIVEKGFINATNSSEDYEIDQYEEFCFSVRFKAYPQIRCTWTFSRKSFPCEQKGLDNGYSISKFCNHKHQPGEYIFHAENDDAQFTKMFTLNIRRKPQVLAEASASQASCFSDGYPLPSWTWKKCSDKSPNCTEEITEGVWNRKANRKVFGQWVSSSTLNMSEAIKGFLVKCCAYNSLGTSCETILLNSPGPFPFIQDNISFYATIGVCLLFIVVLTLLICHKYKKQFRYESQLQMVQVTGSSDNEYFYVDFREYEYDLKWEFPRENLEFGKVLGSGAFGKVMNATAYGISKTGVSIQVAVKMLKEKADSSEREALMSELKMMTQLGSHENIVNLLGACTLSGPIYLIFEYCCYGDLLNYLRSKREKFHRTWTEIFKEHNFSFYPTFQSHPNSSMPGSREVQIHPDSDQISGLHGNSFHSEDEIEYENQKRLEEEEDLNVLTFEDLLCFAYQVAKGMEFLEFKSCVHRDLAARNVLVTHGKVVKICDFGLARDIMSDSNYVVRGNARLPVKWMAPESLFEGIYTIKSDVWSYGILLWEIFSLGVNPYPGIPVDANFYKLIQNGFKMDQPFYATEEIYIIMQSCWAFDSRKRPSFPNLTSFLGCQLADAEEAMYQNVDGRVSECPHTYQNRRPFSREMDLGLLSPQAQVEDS
Method in brief: as §1

[4] = target: CYP3A4 (Homo sapiens (Human), UniProt P08684); assay: Cytochrome P450 inhibition, fluorescence, CYP3A4; assay type: in vitro ADME; details: recombinant CYP3A4, fluorescence detection; read-out: CYP inhibition (CYP 3A4 screening, IC50 class)
Chain of CYP3A4 (P08684 whole entry): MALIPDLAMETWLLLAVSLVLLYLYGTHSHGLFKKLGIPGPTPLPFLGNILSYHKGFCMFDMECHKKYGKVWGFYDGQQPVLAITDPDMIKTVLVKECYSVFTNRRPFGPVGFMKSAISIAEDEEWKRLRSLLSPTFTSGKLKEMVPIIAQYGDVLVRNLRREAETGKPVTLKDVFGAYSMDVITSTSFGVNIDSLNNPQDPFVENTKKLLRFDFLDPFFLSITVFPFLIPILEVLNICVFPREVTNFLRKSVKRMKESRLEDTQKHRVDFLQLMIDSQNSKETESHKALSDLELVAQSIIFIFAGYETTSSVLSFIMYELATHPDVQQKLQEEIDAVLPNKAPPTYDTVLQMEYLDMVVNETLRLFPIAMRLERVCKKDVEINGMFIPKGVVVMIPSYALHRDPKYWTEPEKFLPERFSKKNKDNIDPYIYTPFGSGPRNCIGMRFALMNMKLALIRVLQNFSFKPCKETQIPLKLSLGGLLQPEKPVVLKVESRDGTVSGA
Method in brief: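 Recombinant human CYP3A4 was incubated at 37 °C for 30–45 min with a fluorogenic probe substrate near apparent Km and serially diluted compound, after ≥10 min preincubation with an NADPH-regenerating system. Fluorescence was read after stopping, with compound autofluorescence measured beforehand and no-inhibitor and pre-stopped blanks as controls.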

[5] = target: hERG potassium channel (Homo sapiens (Human), UniProt Q12809); assay: hERG automated patch clamp assay (QPatch HT)
Chain of hERG potassium channel (Q12809 whole entry): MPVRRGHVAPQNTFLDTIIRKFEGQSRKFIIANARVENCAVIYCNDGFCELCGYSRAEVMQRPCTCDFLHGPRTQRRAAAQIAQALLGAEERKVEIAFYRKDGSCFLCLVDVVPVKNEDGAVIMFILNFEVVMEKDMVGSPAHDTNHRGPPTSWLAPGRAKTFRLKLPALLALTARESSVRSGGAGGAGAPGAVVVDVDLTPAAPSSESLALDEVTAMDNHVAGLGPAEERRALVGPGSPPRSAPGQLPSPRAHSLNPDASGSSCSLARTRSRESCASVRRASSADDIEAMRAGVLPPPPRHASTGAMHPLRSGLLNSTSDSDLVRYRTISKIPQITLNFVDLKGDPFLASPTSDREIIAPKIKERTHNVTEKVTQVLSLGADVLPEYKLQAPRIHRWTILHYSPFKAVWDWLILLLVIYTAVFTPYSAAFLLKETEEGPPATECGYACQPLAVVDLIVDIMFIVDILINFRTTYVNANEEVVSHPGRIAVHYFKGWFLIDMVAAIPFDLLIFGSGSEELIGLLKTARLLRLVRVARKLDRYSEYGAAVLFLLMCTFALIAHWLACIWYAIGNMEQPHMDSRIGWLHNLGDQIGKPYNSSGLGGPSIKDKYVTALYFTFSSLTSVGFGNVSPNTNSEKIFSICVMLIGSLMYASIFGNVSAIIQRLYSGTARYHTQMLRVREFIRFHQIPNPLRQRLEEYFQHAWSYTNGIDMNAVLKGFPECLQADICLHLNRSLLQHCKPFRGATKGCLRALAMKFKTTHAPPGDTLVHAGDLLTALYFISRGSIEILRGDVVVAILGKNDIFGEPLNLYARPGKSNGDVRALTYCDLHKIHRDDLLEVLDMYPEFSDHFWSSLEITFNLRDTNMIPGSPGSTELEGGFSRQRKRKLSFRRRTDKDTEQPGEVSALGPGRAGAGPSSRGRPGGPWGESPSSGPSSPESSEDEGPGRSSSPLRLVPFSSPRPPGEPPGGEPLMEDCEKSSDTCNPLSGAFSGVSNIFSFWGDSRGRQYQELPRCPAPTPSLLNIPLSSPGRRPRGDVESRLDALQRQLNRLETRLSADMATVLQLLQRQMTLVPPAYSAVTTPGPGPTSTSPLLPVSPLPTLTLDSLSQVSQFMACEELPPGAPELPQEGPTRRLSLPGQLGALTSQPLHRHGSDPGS
Method in brief: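 Automated whole-cell patch clamp of hERG current in mammalian cells at room temperature. Compounds applied at 0.1, 1, 3, 10 and 30 μM, 3 min per concentration, n≥2 cells each.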

[6] = system: MV4-11 cells; assay: Growth inhibition, MTS assay, MV4-11; assay type: cell-based, Human; details: MTS cell viability, read-out: MV4-11 ED50
[7] = system: FLT3-ITD; assay: ADP-Glo Kinase Assay, Flt3 ITD; assay type: biochemical, Human; details: 1 μM compound
Protocol: Compounds of the present invention were tested for their inhibitory activity against Pim-1, Pim-2, Pim-3, Flt3 wt, Flt3 ITD, CDK2/E and DYRK1. The testing of the compounds was carried out using the ADP-Glo™ Kinase Assay from Promega Corporation (Madison, Wis., USA).
The ADP-Glo™ Kinase Assay is a luminescent ADP detection assay to measure kinase activity by quantifying the amount of ADP produced during a kinase reaction. The kinase assay is performed in kinase assay buffer (5 mM MOPS, pH 7.5, 5 mM MgCl2, 0.4 mM EDTA, 1.5 mM DTT). Test samples initially dissolved in DMSO at 10 mM were diluted with the assay buffer to 1000 nM. A 30 μL volume/well of a mixture of substrates containing ATP (final ATP concentration in each kinase assay was equal to its apparent ATP Km).
The assay was performed in two steps: first, after the kinase reaction, an equal volume of ADP-Glo™ Reagent was added to terminate the kinase reaction and deplete the remaining ATP. Second, the Kinase Detection Reagent was added to simultaneously convert ADP to ATP and allowed the newly synthesized ATP to be measured using a luciferase/luciferin reaction. The luminescent signal generated was proportional to the ADP concentration produced and was correlated with kinase activity. A microplate spectrophotometer (Synergy 2 multi-mode microplate reader [BioTek]) was used for detecting the luminescence. The data was normalized and the percent of inhibition was obtained according to the following equation: […]

[8] = system: SW-480 cells; assay: Growth inhibition, MTS assay, SW-480; assay type: cell-based, Human; details: 72 hours, MTS cell viability, read-out: SW-480 ED50

Chain of Pim-1 (P11309 whole entry): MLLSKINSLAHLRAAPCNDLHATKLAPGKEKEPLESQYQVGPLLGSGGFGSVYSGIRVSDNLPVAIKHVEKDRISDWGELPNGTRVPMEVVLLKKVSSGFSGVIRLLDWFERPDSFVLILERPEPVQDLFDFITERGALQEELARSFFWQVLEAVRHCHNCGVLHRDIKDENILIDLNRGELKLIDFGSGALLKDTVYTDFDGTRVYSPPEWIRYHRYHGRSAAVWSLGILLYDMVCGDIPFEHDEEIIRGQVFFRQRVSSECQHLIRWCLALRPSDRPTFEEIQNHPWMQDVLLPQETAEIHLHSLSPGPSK

inhibition at 1 µM [1]	inhibition at 1 µM [2]	inhibition at 1 µM [3]	IC50 ([6]; Homo sapiens, MV4-11, 72 h)	Compound	IC50 [4]	IC50 ([5]; human, 3 min)	Pim-1 % INH (1 μM) [1]	Pim-2 % INH (1 μM) [2]	Flt3ITD % INH (1 μM) [7]	Flt3wt % INH (1 μM) [3]	IC50 [5]	IC50 ([6]; 72 hours)	IC50 ([8]; Homo sapiens, SW480)	IC50 [8]	IC50 ([6]; Homo sapiens, MV4-11, 72 hours)
> 95%	82%	27%	0.6 µM	CC(C)n1c(N2CC[C@@H](N)C2)nc2c(C#N)c(Br)c(Br)cc21 [Example 1BI]	1.1 to 3.3 µM	5.17 µM	–	–	–	–	–	–	–	–	–
–	–	–	–	CC(C)n1c(N2CCNC[C@H]2C)nc2c([N+](=O)[O-])c(Br)c(Br)cc21 [Example 1AX]	1.1 to 3.3 µM	–	>95%	77%	96%	83%	1.23 µM	0.1 µM	–	–	–
> 95%	68%	65%	0.2 µM	CC(C)n1c(C2CCNCC2)nc2c([N+](=O)[O-])c(Br)c(Br)cc21 [Example 26A, 5,6-dibromo-4-nitro-2-(piperidin-4-yl)-1-(propan-2-yl)-1H-1,3-benzodiazole]	> 10 µM	–	–	–	93%	–	–	–	–	–	–
–	–	–	–	CCCn1c(N2CCNCC2)nc2c([N+](=O)[O-])c(Br)c(Br)cc21 [Example 1M]	1.1 to 3.3 µM	–	>95%	44%	–	46%	0.52 µM	0.6 µM	–	2.1 µM	–
> 95%	53%	55%	0.6 µM	Cl.O=[N+]([O-])c1c(Br)c(Br)cc2c1nc(N1CCNCC1)n2C1CCCC1 [Example 2D, 5,6-dibromo-1-cyclopentyl-4-nitro-2-(piperazin-1-yl)-1H-1,3-benzodiazole hydrochloride]	1.1 to 3.3 µM	–	–	–	–	–	1.6 µM	–	0.6 µM	–	–

Compound	inhibition at 1 µM [1]	inhibition at 1 µM [2]	inhibition at 1 µM [3]	IC50 ([6]; Homo sapiens, MV4-11, 72 h)	IC50 [4]	IC50 ([5]; human, 3 min)	Pim-1 % INH (1 μM) [1]	Pim-2 % INH (1 μM) [2]	Flt3ITD % INH (1 μM) [7]	Flt3wt % INH (1 μM) [3]	IC50 [5]	IC50 ([6]; 72 hours)	IC50 ([8]; Homo sapiens, SW480)	IC50 [8]	IC50 ([6]; Homo sapiens, MV4-11, 72 hours)
CC(C)n1c(N2CCNCC2)nc2c([N+](=O)[O-])c(Br)c(Br)cc21 [Example 2A, 5,6-dibromo-4-nitro-2-(piperazin-1-yl)-1-(propan-2-yl)-1H-1,3-benzodiazole hydrochloride]	> 95%	49%	66%	0.3 µM	3.3 to 10 µM	–	–	–	–	–	3.06 µM	–	0.8 µM	–	–
CCn1c(N2CCNCC2)nc2c([N+](=O)[O-])c(Br)c(Br)cc21 [Example 1A, 5,6-dibromo-1-ethyl-4-nitro-2-(piperazin-1-yl)-1H-1,3-benzodiazole hydrochloride]	81%	22%	26%	–	3.3 to 10 µM	1.6 µM	–	–	81%	–	–	–	2.5 µM	–	0.5 µM
